The values that follow come from patent US9913858B2, “Prevention and treatment of toxicosis” (priority 2013, dated 2018).

Series [1] deals with mice. The series can be described thus: Lolitrem B intoxication in mice, tremor and movement analysis. It is filed as in vivo. Conditions: lolitrem B 2 mg/kg IP. As for the experimental part: FIG. 1. Tremor analysis of animals treated with a single dose of lolitrem B toxin. Tremor analysis: FFT frequency analysis from a mouse prior to (A) and 6 hours post lolitrem B injection 2 mg/kg i.p. (B). Low frequency (0-7 Hz) power output represents primarily movement. […] (D) Tremor-Motion power ratio at one hour post lolitrem B injection (n=4) and vehicle only control (n=4) (*p<0.05, lolitrem B (2 mg/kg i.p.) vs vehicle).
Lolitrem B was tested in mice to establish this as a suitable model for perennial ryegrass toxicosis and lolitrem B intoxication in grazing animals. […] These signs are consistent with clinical signs seen in grazing animals (See FIG. 1).

For series [2], the system named is lolitrem B toxicosis (Rye Grass Staggers). The series can be described thus: Gait analysis and time to falling. It is filed as in vivo, sheep. The conditions noted are these: for time to falling: by context untreated, toxin only. The method, then:
Gait analysis was performed on entry to the trial and at designated time points throughout the trial as described above. To achieve this, animals were moved from their individual pens to an external yard in their cohort groups (five animals, one from each treatment). Animals were then encouraged to move at a run, initially in a group and then individually, for a minimum of three minutes per animal whilst their movement was captured on video and gait observations recorded.
Once all animals had been analysed the whole cohort was returned to their individual pens. Gait abnormalities such as stumbling, falling or disorientation were noted, including observation of Type 1 or Type 2 gait changes as described in Combs et, al., (2014). Type I movement disorder is defined as an impaired alternating movement (dysdiadochokinesia), bunny-hopping gait and failure to maintain an appropriate direction. Type 2 movement disorder is defined by increasing rigidity of limbs on forced movement resulting finally in tonic fore and hind limb extension with the animal collapsing into sternal or lateral recumbency (Combs, Rendell et at 2014). Scores between those denoted above were considered as a gradation between the stated clinical observations. Analysis of gait was performed using the following scale in Table 2 and a composite score noted for each animal for each day during the end of trial protocol. A total score out of 30 was determined for each animal. The higher the score the greater the locomotory disturbance. Time to falling was determined post trial by analysis of video material,
Animals that met the entry criteria (severe Type 2 gait abnormality and falling) were submitted to the end-of-trial protocol. […] Animals were subjected to the following tests on days 1 and 3: gait analysis, full neurological examination, venous blood and urine sampling and EMG. Only gait analysis was performed on day 2.

The test system is the same in series [3]. The series can be described thus: Electromyography, tremor intensity. It is filed as in vivo, sheep. Conditions: lolitrem B intoxicated, EMG. The method, then: EMGs were recorded on entry to the trial, entry to the end of trial (Day 1) and date of post mortem (Day 3) using Powerlab™ (ADInstruments, Castle Hill, Australia) and data recorded using LabChart™ software (ADInstruments, Australia). In preparation, the fleece was shorn from an area over the triceps muscle and along brachiocephalicus muscle of the neck. EMG electrodes were attached to the skin using SuperGlue™. Muscle activity was recorded for a minimum of three minutes with the animal standing at rest with a band pass filter set at 100 Hz. Three minute EMG recordings were taken using Ag—AgCl surface electrodes over the triceps muscle on to entry to the trial, on first day of falling (Day 1) and 48 hours post treatment (Day 3). Data analysis was achieved by application of a Fast-Fourier transformation for statistical comparison. Area under the curve was then calculated at frequencies between 5 and 30 Hz to estimate tremor intensity.

Series [4] has as its system sheep. The series can be described thus: Clinical pathology of serum and urine. The conditions noted are these: toxin only and acute treatment groups, not outside normal ranges. It is filed as in vivo. The text has this: Venous blood samples collected for biochemical analysis and haematocrit (PCV), and urine for USG, at three specific time points during the experiment for all animals: 1) on entry to the trial; 2) on date of entry to the end of trial protocol and, 3) on day of necropsy. Additional venous blood samples were occasionally collected for analysis of serum bromide (see below).
For venous sampling, blood was collected from either the right or left jugular vein as determined by convenience and sampler preference. Needle hubs and sterile, single use 21 G needles and 10 mL Vacutainer® tubes were used for collection. Two Vacutainer® tube types were used for each animal: one containing a clot activator for serum collection, the other contained ethylenediamine tetra-acetic acid (EDTA) to prevent clotting. Tubes were inverted repetitively immediately after collection prior to storage on ice for transport to the laboratory. […]
Urine samples were collected by attachment of a clean plastic bag using SuperGlue™ to the fleece on either side of the preputial opening. […] Urine specific gravity (USG) was determined using a refractometer (VQ5600 refractometer, VetQuip, Australia).
Haematological and biochemical analysis was performed by the laboratory within 60 minutes of blood collection. Haematological analytes were measured using a CellDyn 3700 Haematology System (Abbott Diagnostics, Abbott Park, Ill., USA). […]

In series [5] the test system is lolitrem B intoxication. The series can be described thus: KBr pre-treatment in rodent model of PRGT (lolitrem B injection), tremor analysis and novel arena test. It is filed as in vivo, mice. The method, then: Mice were administered 2500 ppm KBr in their drinking water for 7 days prior to injection with lolitrem B (2 mg/kg IP).
For series [6] the following is noted: PK studies performed prior to this trial (Combs and Edwards, personal communication); cited from earlier work.
Where [7] appears, read: 2500 ppm KBr in drinking water 7 days prior to lolitrem B 2 mg/kg IP, one hour post injection.
[8] abbreviates: 2500 ppm KBr in drinking water 7 days, 3.5 hours post lolitrem B 2 mg/kg IP.

For `CC(C)=C[C@H]1O[C@H]2[C@H]3O[C@@]34[C@H](CC[C@@]3(C)[C@@]4(O)CC[C@H]4Cc5c([nH]c6ccc7c(c56)C[C@@H]5[C@@H](C7=O)C(C)(C)OC5(C)C)[C@@]43C)O[C@@H]2C(C)(C)O1` [lolitrem B], the “distinctive tremor spike, frequency range” value in series [1] was 10-19 Hz. Further, the movement entry in series [1] is “decrease in movement”. Besides, the “composite gait scores over the same time course” value in series [2] (Group 2 sheep, untreated intoxicated, p=0.05) is reported as “increase”. In addition, the “animals falling, no improvement over the same time period” value in series [2] (positive control sheep, toxic feed, not treated with potassium bromide) was 7/7. The results for the time to falling in series [2] (printed as Group 3 Day 2) and in series [2] (printed as Group 3 Day 3) were 59.0 ± 23.50 s and 51.52 ± 20.23 s, respectively. In series [2] (sheep, Groups 2 and 3, toxic feed), the “animals progressing to falling over the same timeframe (22 days)” value is 5. Besides, the “Day 1: Day 3 tremor intensity ratio, median” value in series [3] (Group 2 sheep, no treatment) is 2.03. For the same compound, the “Renal function (creatinine, urea)” value in series [4] was “mildly compromised”.

On to `[Br-].[K+]` [potassium bromide], for which, in series [5] (setting [7]), the peak tremor frequency entry is recorded as “reduced” and the “tremor to movement ratio” value is recorded as “reduced”. In series [5] (setting [8]), the “movement in novel arena test” value is “increased” and the “time freezing in novel arena test” value is listed as “reduce”. In series [2] (Group 3 sheep, lolitrem B toxin, oral 300 mg/kg LW potassium bromide, p=0.001), the “composite gait score, Day 1 (pre-treatment) to Day 2 (24 hours post treatment)” value was “significant reduction”. In series [2] (intoxicated sheep, oral 300 mg/kg BW potassium bromide on day of falling), the “time to falling in intoxicated animals” value is listed as “significantly improve”. Further, in series [2] (intoxicated sheep, oral 300 mg/kg BW potassium bromide on day of falling, 24 and 48 hours after treatment), the “animals failing to fall when driven to movement for a continuous period of 5 minutes” value is on record as 8/9. Besides, the “animals progressing to falling in the designated 22 days of treatment” value in series [2] (sheep, prophylactic potassium bromide plus toxic feed (Group 4)) is given as “one”. Besides, the “Day 1: Day 3 tremor intensity ratio” value in series [3] (Group 3 sheep, acute KBr treatment) is 0.81. The “time of peak serum bromide levels post administration” value in series [6] is 6 h.
